Data: US10849994B2, “Pharmaceutical composition comprising fluorine-18 labelled gases” (ASOCIACIÓN CENTRO DE INVESTIGACIÓN COOPERATIVA EN …, priority 2016, dated 2020)

Test: PET-CT ventilation imaging after inhalation of the radioactive gas
Assay type: in vivo, rat (Sprague-Dawley)
Conditions: male rats
Experimental: Imaging studies were conducted with [^18F]CF4.
Male rats (n=2) weighing 350±14 g (Sprague-Dawley, Harlan, Udine, Italy) were used to perform PET studies. The animals were cared for and handled in accordance with the Guidelines for Accommodation and Care of Animals (European Convention for the Protection of Vertebrate Animals Used for Experimental and Other Scientific Purposes) and internal guidelines, and experimental procedures were approved by the Ethical Committee and local authorities.
The radioactive gas was administered by inhalation, by mixing the mixture [^18F]CF4/CF4/Ne obtained at the end of the production process (process A) with the oxygen carrier gas. With that aim, the system depicted in FIG. 3 was implemented.
PET studies were performed using an eXploreVista-CT small animal PET-CT system (GE Healthcare).
Step 1: Rats were anesthetized in an induction chamber using a mixture of 3-4% isoflurane in O2.
Step 2: Animals were rapidly moved into the PET-CT camera, were anaesthesia was maintained with a mixture of 1.5-2.0% isofluorane in O2. During the stay into the PET-CT camera, animals were kept normothermic using a heating blanket (Homeothermic Blanket Control Unit; Bruker). Regular breathing (frequency of 50±10 breaths/minute) was maintained by adjustment of anaesthetic conditions. Respiration and body temperature of the animals were monitored throughout the scan.
Step 3: At t=0 min, with the animal under anaesthesia, acquisition of PET images was started in list mode.
Step 4: At t=1 minute, the syringe pump was started and the radioactive gas ([^18F]CF4, diluted with Neon and non-radioactive CF4, 74 MBq, 2 mCi) was introduced in the main stream of oxygen and consequently administered to the animal.
Step 5: At t=2 minutes, the syringe pump was stopped, and image acquisition was continued until t=10 minutes.
Step 6: After finalising the PET image acquisition, a whole body CT scan was performed, providing anatomical information as well as the attenuation map, for the later image reconstruction.
Images were reconstructed (decay and CT-based attenuation corrected) with OSEM-2D. Twenty nine frames (3×20s, 10×10s, 4×20s and 12×30s) were defined to gain information about the spatiotemporal distribution of the radioactivity. PET images were analysed using PMOD image analysis software (PMOD Technologies Ltd, Zurich, Switzerland). Volumes of interest (VOIs) were manually drawn in the lungs on the CT images. VOIs were then transferred to the PET images and the concentration of radioactivity was obtained for each organ and time frame as cps/cm^3. All frames were finally summed and re-processed to get more accurate images of the distribution of radioactivity within the lungs.

FC(F)(F)[18F] [[^18F]CF4, ^18F-labelled carbon tetrafluoride]
distribution of the radioactive gas in the lungs (summed PET-CT images, FIG. 8) (n=2, 74 MBq in O2/isoflurane, delivered t=1-2 min, all frames summed): uniform distribution of the radioactive gas in the lungs
elimination of the radioactivity from the lungs after delivery of the radioactive gas is discontinued (n=2, after the syringe pump was stopped at t=2 min): almost complete elimination of the radioactivity is achieved in a few seconds
time-activity curve of a VOI drawn in the whole lungs: plateau (FIG. 9) (n=2, during gas delivery): reached immediately after the onset of contrast agent administration
distribution of the radioactive gas in the lungs (dynamic images) (n=2, dynamic PET frames): immediate distribution of the radioactive gas in the lungs
